TGI and GI50 data for 17 compounds are collected here from PubChem BioAssay (NCI).

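Five concentrations, 48 hours, 96-well plates. GI50: concentration for 50% inhibition of growth. TGI: concentration producing complete growth inhibition.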

Common to all, as to experiment: inhibition of tumour cell growth, NCI panel, 48 h
Experiment [1] concerns RXF 393 renal.
For experiment [2], the system named is EKVX NSCLC.
Experiment [3] deals with CAKI-1 renal.
In experiment [4] the test system is RPMI-8226 leukemia.
Experiment [5] has as its system SF-268 CNS.
In experiment [6] the test system is NCI-H226 lung.
The subject of experiment [7] is NCI-H23 lung.
In experiment [8] the test system is SK-OV-3 ovarian.
In experiment [9] the test system is SK-MEL-2 melanoma.

`COc1ccccc1CCc1cc(OC)c(OC)c(OC)c1`: the TGI in experiment [1] was 57.7 µM; in [2], over 100 µM; in experiment [3], over 100 µM; in [4], 68.8 µM; in experiment [5], over 100 µM; in experiment [6], over 100 µM.

As to `CCC[CH2][Sn]1([CH2]CCC)[O]CC(CN2CCCC2)[O]1` (stereo not given), the GI50 was 11.6 µM in experiment [7]; 22.4 µM in [1]; 12.9 µM in [2]; 5.6 µM in experiment [3]; 7.44 µM in experiment [4]; 21.9 µM in experiment [6]. Besides, the GI50 in [8] was 37 µM; in experiment [9], 13.8 µM. Moreover, the TGI in experiment [7] was found to be 27.7 µM; in experiment [1], 37.8 µM; in experiment [2] it was 33.2 µM; in experiment [3], 24.5 µM; in [4] it was 44.1 µM; in [6], 64.1 µM. Moreover, the TGI is over 100 µM in [8] and 27.1 µM in experiment [9].

With `O=C1C2C3C=C4c5ccccc5N(c5ccccc5)C4(C2C(=O)N1Cc1ccccc1)C1C(=O)N(Cc2ccccc2)C(=O)C31` (stereo not given), the TGI in experiment [7], in experiment [5] and in experiment [9] was over 100 µM in each case.

As to `NCCCCN(CCCN)/[N+]([O-])=N\O`, the TGI in experiment [7], in experiment [1], in experiment [3], in [4], in [5] and in experiment [6] was over 100 µM each time. The TGI in experiment [8] and in [9] was over 100 µM throughout.

As to `Cc1cn(C2CC(O)C(CO)O2)c(=O)n2nnnc12` (stereo not given), the TGI in experiment [7], in [2], in experiment [4], in experiment [5], in experiment [6] and in experiment [8] was over 100 µM in each case. The compound also registered a TGI in experiment [9] of over 100 µM.

With `CC1(C)C(=O)N(CCCCCCN2C(=O)C(C)(C)c3ccccc32)c2ccccc21`, the TGI in experiment [7] was over 100 µM; in [2], over 100 µM; in experiment [3] it was over 100 µM; in experiment [4], 45.1 µM; in experiment [5], over 100 µM; in experiment [6], 87.2 µM. The TGI in [8] and in experiment [9] was over 100 µM throughout.

Turning to `COc1cc(C(C)O)c[n+](CCc2c[nH]c3ccccc23)c1` (stereo not given), the TGI in [7], in experiment [1], in experiment [2], in experiment [3], in [4] and in experiment [5] was over 100 µM in each case. The TGI in [9] was over 100 µM.

`Cc1nc(N)sc1C(=O)/C=C\c1ccc2c(c1)OCO2`: the TGI in experiment [7], in [1], in experiment [2], in experiment [3], in experiment [4] and in experiment [5] was over 100 µM each time. The TGI in experiment [6], in experiment [8] and in [9] was over 100 µM in each case.

Take `COC(=O)/C(=N\Nc1nnc(C)n1N)C(C#N)c1ccc(Cl)cc1` (stereo not given): the TGI in experiment [7], in experiment [1], in experiment [2], in experiment [3], in experiment [4] and in experiment [5] was over 100 µM throughout. The TGI in [6], in [8] and in [9] was over 100 µM throughout.

Regarding `COc1cc2c(cc1OC)C(CC(=O)NN=C(C)C)NCC2` (stereo not given), the TGI in experiment [7], in [1], in [2], in experiment [3], in [4] and in [5] was over 100 µM throughout. Besides, the TGI in experiment [6], in experiment [8] and in experiment [9] was over 100 µM throughout.

For the compound `COC(=O)C1=C(C)N(NC(=O)OC(C)(C)C)C(=O)C1=P(c1ccccc1)(c1ccccc1)c1ccccc1`, the TGI in experiment [7], in [1], in experiment [2], in experiment [3], in [4] and in [5] was over 100 µM each time. Moreover, the TGI in experiment [6], in experiment [8] and in [9] was over 100 µM each time.

Turning to `C[C@@H]1CC(=O)C2CCCC1C2=O` (stereo not given in full), the TGI in [1], in [2], in experiment [3], in [4], in [5] and in experiment [6] was over 100 µM throughout. The same compound had a TGI in [8] of over 100 µM.

Take `CC1(C)SCc2nc3ncccc3n21`: the TGI in experiment [7], in [1], in experiment [2], in experiment [3], in [4] and in experiment [5] was over 100 µM throughout. The TGI in experiment [6], in [8] and in [9] was over 100 µM throughout.

`CC1CC[C@]2(C(=O)O)CCC3(C)C(=CC(=O)C4[C@@]5(C)CCC(=O)C(C)(C)C5CC[C@]43C)[C@@H]2[C@H]1C` (stereo not given in full): the TGI in experiment [7] is 79.3 µM; in experiment [1], 49.4 µM; in experiment [2] it was over 100 µM; in [3], over 100 µM; in experiment [5] it was over 100 µM; in experiment [6], 92.6 µM. The TGI in [8] is over 100 µM.

With `Cc1cccc(NC(=O)/C(=N\NC(C)(C)C)C2NC(=S)NC2=O)c1C` (stereo not given), the TGI in experiment [2], in experiment [3], in [4], in experiment [8] and in experiment [9] was over 100 µM each time.

`Cc1ccc(C2=C(c3ccccc3)C(Br)(c3ccc(C)cc3)C(c3ccccc3)=C2c2ccc(C)cc2)cc1`: the TGI in experiment [7], in experiment [2], in [3], in experiment [4], in experiment [5] and in [8] was over 100 µM in each case. For the same compound, in experiment [9], the TGI was over 100 µM.

Consider `COc1cc(C=C2C(=O)NC(=O)NC2=O)cc(OC)c1OC`, for which the TGI in experiment [7], in experiment [1], in experiment [2], in experiment [3], in experiment [4] and in experiment [5] was over 100 µM each time. Besides, the TGI in experiment [6], in experiment [8] and in experiment [9] was over 100 µM throughout.
